Reference: publication PMC9227994, “Evaluation of the Intestinal Permeability of Rosmarinic Acid from Thunbergia laurifolia Leaf Water Extract in a Caco-2 Cell Model” (Molecules, 2022)
Entries after “also recorded” stand apart in the source; their conditions may differ. Where two headings read alike, the source gives them in different places.

Legend:
[1] = cited from earlier work
Caco-2 cell monolayers = assay: Transepithelial transport (permeability) across Caco-2 cell monolayers, HPLC-PDA, with or without β-glucuronidase/sulfatase deconjugation; format: in vitro ADME, human; conditions: for Papp (A-B) relative to B-A direction: after deconjugation; for ER (after Deconjugation): Papp (B-A)/Papp (A-B)
Procedure: (§1) Caco-2 cells (ATCC no. HTB-37) were obtained from the American Type Culture Collection (Rockville, MD, USA) and cultured in DMEM containing […] sodium pyruvate, 20% fetal bovine serum, and 10,000 U/mL penicillin and 10,000 ug/mL streptomycin. Cell culture was maintained at 37 °C in a humidified atmosphere of 5% CO2. On achieving 80–90% confluence, Caco-2 cells were harvested using 0.25% trypsin–EDTA solution and mixed with complete DMEM medium. All cells were used for transport experiments between passages 30 and 40. The integrity of the Caco-2 cell monolayer in the transwell plates was evaluated by measuring transepithelial electrical resistance (TEER) across the monolayers using Millicell-ERS VoltOhm Meter (Millipore, Temecula, CA, USA). […] A (cm^2) is the area of the insert, 1.12 cm^2. […] The culture medium in inserts and plates was changed every 2–3 days for both A and B sides. All cells were used for transport experiments on days 19–21 postseeding. Before starting the transport experiment, the inserts were washed twice and equilibrated with transport buffer (HBSS containing […] HEPES, pH 7.4) for 30 min. Sample solutions of TL extract and RA were prepared and diluted in HBSS to the desired final concentrations. For the transport study of TL extract and RA across Caco-2 cell, sample solutions were added on donor chamber, 400 µL on A side or 1200 µL on B side. The equal volumes of transport buffer were replaced in the receiving chambers. The RA transport in samples was assessed either in A-B or B-A direction across Caco-2 cell monolayers. The plates were incubated at 37 °C for 120 min with gentle shaking at 100 rpm. The solutions of 200 µL on A side and 600 µL on B side were collected at the selected times of 30, 60, 90, and 120 min and immediately replaced with an equal volume of transport buffer to maintain the total volume in receiving chamber. Samples were stored at −80°C until analysis. The amount of transported RA in samples and reference compound was calculated using HPLC system according to the standard curve. β-glucuronidase/sulfatase (Type H-2 from Helix pomatia, 85 units/L of glucuronidase, and 7.5 units/L of sulfatase, Sigma-Aldrich Co., St. Louis, MO, USA) was added to collected samples, which were obtained from B-A solutions at 30, 60, 90, and 120 min, in a ratio of 1:20 and incubated at 37 °C for 4 h to release the parent compounds. These samples from both sides were then injected directly and analyzed for RA by HPLC. The relationship of Q (cumulative permeated amount; μg) versus time, was calculated with the following Equation (3):(3) Q=CnV+∑i=1n−1CiS where Cn is concentration of RA determined at nth sampling interval; V is volume of individual side, ∑i=1n−1Ci is sum of concentration of RA determined at sampling intervals 1 through n − 1, and S is volume of sampling aliquot The Papp (unit: cm/s) was determined and calculated from the amount of compound permeated per time by the following Equation (4):(4) Papp=(dQ/dt/C0×A) where dQ/dt is the steady-state flux of test compound across the cell monolayer in the receiver chamber (µg/min); C0 is the initial concentration in the donor (A or B side) chamber (µg/mL), and A is the surface area of the cell monolayer (cm^2). The membrane area (cm^2) of the insert is 1.12 cm^2. The ER was determined by calculating the ratio of Papp (B-A) versus Papp (A-B) as the following Equation (5):(5) ER=Papp (B-A)/Papp (A-B) where Papp (B-A) is the apparent permeability coefficient value in B-A direction, and Papp (A-B) is the permeability coefficient value in A-B direction. Basolateral recovery (%) was calculated as the amount of test compound transported through the Caco-2 cell monolayer to the B side and remaining on the A side at the end of the experiment divided by the initial amount on the A side.

[2] = as above; format: in vitro ADME, human; conditions: human, after β-glucuronidase/sulfatase
Procedure: as §1

Caco-2 cells [3] = tested on: Caco-2 cells; set-up: method as in PMID 15784988; conditions: cited from earlier work
[4] = Cytotoxicity test, MTT assay; format: cell-based, human; conditions: human, Caco-2 cells, 1000 µg/mL, read-out: cell viability
Procedure: (§2) Cell viability of TL extracts and RA on Caco-2 cells was determined using MTT following modified assay. Caco-2 cells were seeded in 96-well plates at a density of 2 × 10^4 cells/well and cultured at 37 °C and 5% CO2 for 24 h. TL extracts and RA were dissolved in 50% DMSO and diluted with complete DMEM medium containing 0.1% DMSO in the culture medium. The tested compounds were diluted with medium at a concentration range of 1–1000 µg/mL for 24 h exposure experiment. After removal of the medium, the cells were washed with PBS and incubated with 50 µL of 0.5% MTT solution for 2 h at 37 °C and 5% CO2. A total of 50 μL of DMSO was put into each well to dissolve the formazan crystals. The absorbance was detected using a microplate reader at 590 nm. The percentage of cell viability was calculated according to the following Equation (1):(1) % Cell viability=A (sample)−A (blank)/A (control)−A (blank)×100 where A (sample) is absorbance value of sample; A (blank) is absorbance value of blank, and A (negative control) is absorbance value of control (cells). The experiment was performed in three replicates, and the concentration with a viability of more than 90% was chosen for evaluation in monolayer transport experiments as nontoxic to cells.

Caco-2 cells [5] = assay: Cytotoxicity test, MTT assay; format: cell-based, human; conditions: concentrations below 500 µg/mL, 24 h
Procedure: as §2

[6] = set-up: method as in doi:10.1039/C6RA28237G; conditions: rats, cited from earlier work
[7] = Stability of RA in HBSS (pH 7.4) at 37 °C for 2 h; format: physicochemical; conditions: HBSS pH 7.4, 37 °C, TL extract 250 µg/mL equivalent to pure RA 3.267 µg/mL
Procedure: The stability of RA in the TL extract of 250 µg/mL, which was equivalent to pure RA of 3.267 µg/mL in HBSS solution was determined. The TL extracts and RA were dissolved in HBSS solution (pH 7.4) and incubated at 37 °C for 2 h according to the same conditions as in the transport experiment. The contents of the RA as in TL extract and pure compound were measured for stability tests using HPLC. Their RA remains before and after incubation were calculated and expressed as a percentage of RA.

[8] = pure RA 3.267 µg/mL, after β-glucuronidase/sulfatase, listed as RA in pure RA

O=C(/C=C/c1ccc(O)c(O)c1)O[C@H](Cc1ccc(O)c(O)c1)C(=O)O [RA, Rosmarinic acid]
logarithm of octanol–water partition coefficient (logP) [1]: 1.626 | partition coefficient (log Kow) [1]: 1.82 | efflux ratio (ER), overall (Caco-2 cell monolayers; all concentrations, below 2 taken as no active efflux): less than 2 | Papp (A-B) relative to B-A direction (Caco-2 cell monolayers; pure RA 3.267 µg/mL): 2.02 fold | ER (after Deconjugation) (Caco-2 cell monolayers; pure RA 3.267 µg/mL): 0.5 | Papp A-B Direction (after Deconjugation) (Caco-2 cell monolayers; [8]): 41.2 ± 2.3 × 10^−6 cm/s | Papp B-A Direction (after Deconjugation) (Caco-2 cell monolayers; [8]): 20.4 ± 5.2 × 10^−6 cm/s | Papp (A-B) relative to B-A direction (Caco-2 cell monolayers; pure RA 6.808 µg/mL): 3.67 fold | ER (after Deconjugation) (Caco-2 cell monolayers; pure RA 6.808 µg/mL): 0.3 | Papp A-B Direction (after Deconjugation) (Caco-2 cell monolayers; pure RA 6.808 µg/mL, after β-glucuronidase/sulfatase, listed as RA in pure RA): 22.9 ± 1.0 × 10^−6 cm/s | Papp values before deconjugation, A-B and B-A directions (Caco-2 cell monolayers; pure RA, both concentrations, both directions): could not be detected; also recorded: not detectable | Papp A→B at 120 min, 3.267 µg/mL ([2]; Caco-2, pH 7.4, pure RA 3.267 µg/mL, read-out: Papp A-B Direction (after Deconjugation)): 41.2 ± 2.29 ×10⁻⁶ cm/s | Papp B→A at 120 min, 3.267 µg/mL ([2]; Caco-2, pH 7.4, pure RA 3.267 µg/mL, read-out: Papp B-A Direction (after Deconjugation)): 20.4 ± 5.16 ×10⁻⁶ cm/s | Papp A→B at 120 min, 6.808 µg/mL ([2]; Caco-2, pH 7.4, pure RA 6.808 µg/mL, read-out: Papp A-B Direction (after Deconjugation)): 22.9 ± 0.97 ×10⁻⁶ cm/s | Papp B→A at 120 min, 6.808 µg/mL ([2]; Caco-2, pH 7.4, pure RA 6.808 µg/mL, read-out: Papp B-A Direction (after Deconjugation)): 6.2 ± 0.2 ×10⁻⁶ cm/s | RA absorbed in Caco-2 cells (Caco-2 cells [3]): 0.03–0.06% | viability at 24 h, 1000 µg/mL [4]: 85% | Cytotoxicity to Caco-2 cells (Caco-2 cells [5]): nontoxic | oral absolute BA ([6]; single oral dose 12.5 mg/kg): 1.69% | oral absolute BA ([6]; single oral dose 25 mg/kg): 1.28% | oral absolute BA ([6]; single oral dose 50 mg/kg): 0.91% | RA stability in HBSS [7]: 91%
